In brackets after ≈: the same amount, converted by molar mass.
Assays:
Assay type in all cases: functional
Bacillus subtilis [1] = assay: Antibacterial activity against Bacillus subtilis MTCC 441 at 250 ug/ml after 48 hr by cup-plate method; conditions: MTCC 441, 48 h, read-out: DIZ
Penicillium chrysogenum [2] = assay: Antifungal activity against Penicillium chrysogenum MTCC 161 at 750 ug/ml after 48 hr by cup-plate method; conditions: MTCC 161, 48 h, read-out: DIZ
Penicillium chrysogenum [3] = assay: Antifungal activity against Penicillium chrysogenum MTCC 161 at 1250 ug/ml after 48 hr by cup-plate method; conditions: MTCC 161, 48 h, read-out: DIZ
Staphylococcus aureus [4] = assay: Antibacterial activity against Staphylococcus aureus MTCC 1430 after 24 to 48 hr by tube dilution method
Micrococcus luteus [5] = assay: Antibacterial activity against Micrococcus luteus MTCC 1538 at 1250 ug/ml after 48 hr by cup-plate method; conditions: MTCC 1538, 48 h, read-out: DIZ
Bacillus subtilis [6] = assay: Antibacterial activity against Bacillus subtilis MTCC 441 at 1250 ug/ml after 48 hr by cup-plate method; conditions: MTCC 441, 48 h, read-out: DIZ
Escherichia coli [7] = assay: Antibacterial activity against Escherichia coli MTCC 1573 after 24 to 48 hr by tube dilution method
Escherichia coli [8] = assay: Antibacterial activity against Escherichia coli MTCC 1573 at 750 ug/ml after 48 hr by cup-plate method; conditions: MTCC 1573, 48 h, read-out: DIZ
Penicillium chrysogenum [9] = assay: Antifungal activity against Penicillium chrysogenum MTCC 161 at 500 ug/ml after 48 hr by cup-plate method; conditions: MTCC 161, 48 h, read-out: DIZ
Bacillus pumilus [10] = assay: Antibacterial activity against Bacillus pumilus MTCC 1456 at 250 ug/ml after 48 hr by cup-plate method; conditions: MTCC 1456, 48 h, read-out: DIZ
Pseudomonas aeruginosa [11] = assay: Antibacterial activity against Pseudomonas aeruginosa MTCC 424 after 24 to 48 hr by tube dilution method
Penicillium chrysogenum [12] = assay: Antifungal activity against Penicillium chrysogenum MTCC 161 at 100 ug/ml after 48 hr by cup-plate method; conditions: MTCC 161, 48 h, read-out: DIZ
Pseudomonas fluorescens [13] = assay: Antibacterial activity against Pseudomonas fluorescens MTCC 2421 at 1000 ug/ml after 48 hr by cup-plate method; conditions: MTCC 2421, 48 h, read-out: DIZ
Staphylococcus aureus [14] = assay: Antibacterial activity against Staphylococcus aureus MTCC 1430 at 750 ug/ml after 48 hr by cup-plate method; conditions: MTCC 1430, 48 h, read-out: DIZ
Aspergillus niger [15] = assay: Antifungal activity against Aspergillus niger MTCC 2546 at 250 ug/ml after 48 hr by cup-plate method; conditions: MTCC 2546, 48 h, read-out: DIZ
Pseudomonas fluorescens [16] = assay: Antibacterial activity against Pseudomonas fluorescens MTCC 2421 at 250 ug/ml after 48 hr by cup-plate method; conditions: MTCC 2421, 48 h, read-out: DIZ
Aspergillus niger [17] = assay: Antifungal activity against Aspergillus niger MTCC 2546 at 500 ug/ml after 48 hr by cup-plate method; conditions: MTCC 2546, 48 h, read-out: DIZ
Bacillus subtilis [18] = assay: Antibacterial activity against Bacillus subtilis MTCC 441 at 1000 ug/ml after 48 hr by cup-plate method; conditions: MTCC 441, 48 h, read-out: DIZ
Bacillus pumilus [19] = assay: Antibacterial activity against Bacillus pumilus MTCC 1456 after 24 to 48 hr by tube dilution method
Bacillus pumilus [20] = assay: Antibacterial activity against Bacillus pumilus MTCC 1456 at 100 ug/ml after 48 hr by cup-plate method; conditions: MTCC 1456, 48 h, read-out: DIZ
Bacillus pumilus [21] = assay: Antibacterial activity against Bacillus pumilus MTCC 1456 at 1000 ug/ml after 48 hr by cup-plate method; conditions: MTCC 1456, 48 h, read-out: DIZ
Pseudomonas fluorescens [22] = assay: Antibacterial activity against Pseudomonas fluorescens MTCC 2421 after 24 to 48 hr by tube dilution method
Aspergillus niger [23] = assay: Antifungal activity against Aspergillus niger MTCC 2546 after 24 to 48 hr by tube dilution method
Micrococcus luteus [24] = assay: Antibacterial activity against Micrococcus luteus MTCC 1538 at 750 ug/ml after 48 hr by cup-plate method; conditions: MTCC 1538, 48 h, read-out: DIZ
Staphylococcus aureus [25] = assay: Antibacterial activity against Staphylococcus aureus MTCC 1430 at 1000 ug/ml after 48 hr by cup-plate method; conditions: MTCC 1430, 48 h, read-out: DIZ
Bacillus pumilus [26] = assay: Antibacterial activity against Bacillus pumilus MTCC 1456 at 750 ug/ml after 48 hr by cup-plate method; conditions: MTCC 1456, 48 h, read-out: DIZ
Pseudomonas aeruginosa [27] = assay: Antibacterial activity against Pseudomonas aeruginosa MTCC 424 at 500 ug/ml after 48 hr by cup-plate method; conditions: MTCC 424, 48 h, read-out: DIZ
Pseudomonas fluorescens [28] = assay: Antibacterial activity against Pseudomonas fluorescens MTCC 2421 at 1250 ug/ml after 48 hr by cup-plate method; conditions: MTCC 2421, 48 h, read-out: DIZ
Pseudomonas aeruginosa [29] = assay: Antibacterial activity against Pseudomonas aeruginosa MTCC 424 at 250 ug/ml after 48 hr by cup-plate method; conditions: MTCC 424, 48 h, read-out: DIZ
Staphylococcus aureus [30] = assay: Antibacterial activity against Staphylococcus aureus MTCC 1430 at 250 ug/ml after 48 hr by cup-plate method; conditions: MTCC 1430, 48 h, read-out: DIZ
Bacillus subtilis [31] = assay: Antibacterial activity against Bacillus subtilis MTCC 441 at 750 ug/ml after 48 hr by cup-plate method; conditions: MTCC 441, 48 h, read-out: DIZ
Staphylococcus aureus [32] = assay: Antibacterial activity against Staphylococcus aureus MTCC 1430 at 500 ug/ml after 48 hr by cup-plate method; conditions: MTCC 1430, 48 h, read-out: DIZ
Pseudomonas aeruginosa [33] = assay: Antibacterial activity against Pseudomonas aeruginosa MTCC 424 at 100 ug/ml after 48 hr by cup-plate method; conditions: MTCC 424, 48 h, read-out: DIZ
Bacillus pumilus [34] = assay: Antibacterial activity against Bacillus pumilus MTCC 1456 at 500 ug/ml after 48 hr by cup-plate method; conditions: MTCC 1456, 48 h, read-out: DIZ
Pseudomonas aeruginosa [35] = assay: Antibacterial activity against Pseudomonas aeruginosa MTCC 424 at 750 ug/ml after 48 hr by cup-plate method; conditions: MTCC 424, 48 h, read-out: DIZ
Micrococcus luteus [36] = assay: Antibacterial activity against Micrococcus luteus MTCC 1538 after 24 to 48 hr by tube dilution method
Pseudomonas fluorescens [37] = assay: Antibacterial activity against Pseudomonas fluorescens MTCC 2421 at 500 ug/ml after 48 hr by cup-plate method; conditions: MTCC 2421, 48 h, read-out: DIZ
Escherichia coli [38] = assay: Antibacterial activity against Escherichia coli MTCC 1573 at 250 ug/ml after 48 hr by cup-plate method; conditions: MTCC 1573, 48 h, read-out: DIZ
Micrococcus luteus [39] = assay: Antibacterial activity against Micrococcus luteus MTCC 1538 at 1000 ug/ml after 48 hr by cup-plate method; conditions: MTCC 1538, 48 h, read-out: DIZ
Penicillium chrysogenum [40] = assay: Antifungal activity against Penicillium chrysogenum MTCC 161 after 24 to 48 hr by tube dilution method
Aspergillus niger [41] = assay: Antifungal activity against Aspergillus niger MTCC 2546 at 1000 ug/ml after 48 hr by cup-plate method; conditions: MTCC 2546, 48 h, read-out: DIZ
Pseudomonas fluorescens [42] = assay: Antibacterial activity against Pseudomonas fluorescens MTCC 2421 at 750 ug/ml after 48 hr by cup-plate method; conditions: MTCC 2421, 48 h, read-out: DIZ
Escherichia coli [43] = assay: Antibacterial activity against Escherichia coli MTCC 1573 at 1000 ug/ml after 48 hr by cup-plate method; conditions: MTCC 1573, 48 h, read-out: DIZ

`O=[N+]([O-])c1ccc(C2CC(c3cccc4ccccc34)=NN2)cc1` (stereo not drawn) was tested, and the zone of inhibition at 250 µg/mL (Bacillus subtilis [1]) was 12 mm, the zone of inhibition at 750 µg/mL (Penicillium chrysogenum [2]) was 14 mm and the zone of inhibition at 1250 µg/mL (Penicillium chrysogenum [3]) was 17 mm. For the same molecule, the MIC (Staphylococcus aureus [4]) was 50 µg/mL (≈ 158 µM), the zone of inhibition at 1250 µg/mL (Micrococcus luteus [5]) was 15 mm and the zone of inhibition at 1250 µg/mL (Bacillus subtilis [6]) was 19 mm. For the same molecule, the MIC (Escherichia coli [7]) was 200 µg/mL (≈ 630 µM), the zone of inhibition at 750 µg/mL (Escherichia coli [8]) was 13 mm and the zone of inhibition at 500 µg/mL (Penicillium chrysogenum [9]) was 10 mm. It also gave a zone of inhibition at 250 µg/mL (Bacillus pumilus [10]) of 9 mm, an MIC (Pseudomonas aeruginosa [11]) of 30 µg/mL (≈ 94.5 µM) and a zone of inhibition at 100 µg/mL (Penicillium chrysogenum [12]) of 8 mm. It also gave a zone of inhibition at 1000 µg/mL (Pseudomonas fluorescens [13]) of 15 mm, a zone of inhibition at 750 µg/mL (Staphylococcus aureus [14]) of 13 mm and a zone of inhibition at 250 µg/mL (Aspergillus niger [15]) of 9 mm. For the same molecule, the zone of inhibition at 250 µg/mL (Pseudomonas fluorescens [16]) was 9 mm, the zone of inhibition at 500 µg/mL (Aspergillus niger [17]) was 10 mm and the zone of inhibition at 1000 µg/mL (Bacillus subtilis [18]) was 16 mm. It also gave an MIC (Bacillus pumilus [19]) of 30 µg/mL (≈ 94.5 µM), a zone of inhibition at 100 µg/mL (Bacillus pumilus [20]) of 8 mm and a zone of inhibition at 1000 µg/mL (Bacillus pumilus [21]) of 17 mm. For the same molecule, the MIC (Pseudomonas fluorescens [22]) was 150 µg/mL (≈ 473 µM), the MIC (Aspergillus niger [23]) was 50 µg/mL (≈ 158 µM) and the zone of inhibition at 750 µg/mL (Micrococcus luteus [24]) was 12 mm. The zone of inhibition at 1000 µg/mL (Staphylococcus aureus [25]) was 14 mm, the zone of inhibition at 750 µg/mL (Bacillus pumilus [26]) was 14 mm and the zone of inhibition at 500 µg/mL (Pseudomonas aeruginosa [27]) was 11 mm. The zone of inhibition at 1250 µg/mL (Pseudomonas fluorescens [28]) was 17 mm, the zone of inhibition at 250 µg/mL (Pseudomonas aeruginosa [29]) was 10 mm and the zone of inhibition at 250 µg/mL (Staphylococcus aureus [30]) was 10 mm. The zone of inhibition at 750 µg/mL (Bacillus subtilis [31]) was 15 mm, the zone of inhibition at 500 µg/mL (Staphylococcus aureus [32]) was 11 mm and the zone of inhibition at 100 µg/mL (Pseudomonas aeruginosa [33]) was 9 mm. It also gave a zone of inhibition at 500 µg/mL (Bacillus pumilus [34]) of 10 mm, a zone of inhibition at 750 µg/mL (Pseudomonas aeruginosa [35]) of 12 mm and an MIC (Micrococcus luteus [36]) of 30 µg/mL (≈ 94.5 µM). It also gave a zone of inhibition at 500 µg/mL (Pseudomonas fluorescens [37]) of 11 mm, a zone of inhibition at 250 µg/mL (Escherichia coli [38]) of 10 mm and a zone of inhibition at 1000 µg/mL (Micrococcus luteus [39]) of 13 mm. The MIC (Penicillium chrysogenum [40]) was 50 µg/mL (≈ 158 µM), the zone of inhibition at 1000 µg/mL (Aspergillus niger [41]) was 16 mm and the zone of inhibition at 750 µg/mL (Pseudomonas fluorescens [42]) was 14 mm. The zone of inhibition at 1000 µg/mL (Escherichia coli [43]) was 15 mm.

Source: ChEMBL document CHEMBL3044945, “Synthesis of 1,3,5-trisubstituted pyrazoline nucleus containing compounds and screening for antimicrobial activity” (2012)
